Reference: EP3807270B1, “NOVEL HETEROARYL HETEROCYCLYL COMPOUNDS FOR THE TREATMENT OF AUTOIMMUNE DISEASE” (F. Hoffmann-La Roche AG, priority 2018, dated 2019)

What was measured:
hTLR9 = molecular target: T1, hTLR9 (Homo sapiens, UniProt Q9NR96); experiment: HEK293-Blue-hTLR-9 cells assay (SEAP reporter, ODN2006 stimulation); type: cell-based; design: host or cells: HEK293 (HEK-Blue); conditions: HEK293-Blue-hTLR9 cells, ODN2006, 20 hrs; read-out: HEK/hTLR9 IC50
T1 sequence (Q9NR96 26-1032): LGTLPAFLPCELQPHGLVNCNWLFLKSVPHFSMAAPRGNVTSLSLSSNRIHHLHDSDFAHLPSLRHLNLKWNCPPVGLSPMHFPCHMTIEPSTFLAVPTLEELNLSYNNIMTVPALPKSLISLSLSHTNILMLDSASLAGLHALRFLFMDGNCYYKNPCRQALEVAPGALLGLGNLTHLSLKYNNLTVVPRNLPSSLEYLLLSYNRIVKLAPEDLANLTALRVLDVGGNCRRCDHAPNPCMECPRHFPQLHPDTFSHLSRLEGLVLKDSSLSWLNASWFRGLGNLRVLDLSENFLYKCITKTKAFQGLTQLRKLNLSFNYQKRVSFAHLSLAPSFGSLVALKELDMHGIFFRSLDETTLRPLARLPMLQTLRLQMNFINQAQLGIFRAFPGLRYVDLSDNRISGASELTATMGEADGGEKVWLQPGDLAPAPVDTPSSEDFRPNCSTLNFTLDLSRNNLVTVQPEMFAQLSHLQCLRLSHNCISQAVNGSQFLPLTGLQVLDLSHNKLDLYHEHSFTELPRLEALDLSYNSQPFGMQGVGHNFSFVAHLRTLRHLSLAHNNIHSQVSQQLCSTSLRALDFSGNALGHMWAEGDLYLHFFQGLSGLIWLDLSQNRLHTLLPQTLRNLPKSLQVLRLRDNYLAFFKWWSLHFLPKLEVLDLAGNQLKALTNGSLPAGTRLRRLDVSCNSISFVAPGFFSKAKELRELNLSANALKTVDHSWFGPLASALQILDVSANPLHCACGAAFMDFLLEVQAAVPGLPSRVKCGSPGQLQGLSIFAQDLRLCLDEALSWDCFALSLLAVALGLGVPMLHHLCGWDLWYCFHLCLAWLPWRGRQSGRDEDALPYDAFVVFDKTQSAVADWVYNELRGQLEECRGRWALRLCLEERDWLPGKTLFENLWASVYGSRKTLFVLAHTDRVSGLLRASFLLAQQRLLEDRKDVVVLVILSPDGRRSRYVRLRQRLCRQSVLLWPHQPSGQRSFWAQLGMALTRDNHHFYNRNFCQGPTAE
Description: A stable HEK293-Blue-hTLR-9 cell line was purchased from InvivoGen (Cat.#: hkb-htlr9, San Diego, California, USA). These cells were originally designed for studying the stimulation of human TLR9 by monitoring the activation of NF-κB. A SEAP (secreted embryonic alkaline phosphatase) reporter gene was placed under the control of the IFN-β minimal promoter fused to five NF-κB and AP-1-binding sites. The SEAP was induced by activating NF-κB and AP-1 via stimulating HEK-Blue hTLR9 cells with TLR9 ligands. Therefore, the reporter expression was declined by TLR9 antagonist under the stimulation of a ligand, such as ODN2006 (Cat.#: tlrl-2006-1, Invivogen, San Diego, California, USA), for incubation of 20 hrs. The cell culture supernatant SEAP reporter activity was determined using QUANTI-Blue™ kit (Cat.#: rep-qb 1, Invivogen, San Diego, California, USA) at a wavelength of 640 nm, a detection medium that turns purple or blue in the presence of alkaline phosphatase.
HEK293-Blue-hTLR9 cells were incubated at a density of 250,000-450,000 cells/mL in a volume of 170 µL in a 96-well plate in Dulbecco's Modified Eagle's medium (DMEM) containing 4.5 g/L glucose, 50 U/mL penicillin, […], […], 2 mM L-glutamine, 10% (v/v) heat-inactivated fetal bovine serum with addition of 20 µL test compound in a serial dilution in the presence of final DMSO at 1% and 10 µL of 20uM ODN2006 in above DMEM, perform incubation under 37 °C in a CO2 incubator for 20 hrs. Then 20 µL of the supernatant from each well was incubated with 180 µL Quanti-blue substrate solution at 37 °C for 2 hrs and the absorbance was read at 620-655 nm using a spectrophotometer. The signaling pathway that TLR9 activation leads to downstream NF-κB activation has been widely accepted, and therefore similar reporter assay was modified for evaluating TLR9 antagonist.

CYP2D6 = molecular target: T2, CYP2D6 (Homo sapiens, UniProt P10635); experiment: CYP inhibition assay in human liver microsome; type: in vitro ADME; conditions: human liver microsomes, probe dextromethorphan, 10µM test compound, dextromethorphan substrate, <0: not or weak inhibitor, read-out: CYP 2D6 inhibition %@10µM
T2 construct: tissue BD-Gentest 452117; host or cells: human liver microsomes
T2 sequence (P10635 whole entry): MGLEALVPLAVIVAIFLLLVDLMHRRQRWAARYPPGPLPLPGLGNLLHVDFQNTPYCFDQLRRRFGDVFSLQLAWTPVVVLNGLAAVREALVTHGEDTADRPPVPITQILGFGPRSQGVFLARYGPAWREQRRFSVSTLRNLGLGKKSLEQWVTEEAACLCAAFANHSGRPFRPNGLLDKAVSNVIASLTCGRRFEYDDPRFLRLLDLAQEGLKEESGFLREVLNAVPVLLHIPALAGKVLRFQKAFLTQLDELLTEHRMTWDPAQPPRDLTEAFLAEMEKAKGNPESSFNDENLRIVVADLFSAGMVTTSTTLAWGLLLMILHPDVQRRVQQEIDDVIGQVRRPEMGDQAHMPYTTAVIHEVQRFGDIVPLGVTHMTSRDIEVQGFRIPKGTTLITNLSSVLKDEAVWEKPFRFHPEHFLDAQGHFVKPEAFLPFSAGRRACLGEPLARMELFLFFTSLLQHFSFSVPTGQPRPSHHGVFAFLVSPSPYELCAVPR
Method: This is a high throughput screening assay used for assessment of reversible inhibition of CYP2D6 activity of test compounds in human liver microsome (HLM) in early discovery stage. Table 4. Chemicals and materials used in the CYP inhibition assay
10 mM DMSO stock solutions of test compounds were diluted in DMSO to generate 2 mM intermediate stock solution. 250 nL of intermediate stock solution were transferred in duplicate into 3 separate 384 well microtitre plates (assay-ready plates). A mixture of HLM and each substrate was made up. 45 µL of HLM substrate mix was then transferred to each well of an assay ready plate and mixed. The negative (solvent) and positive control (standard inhibitor for CYP 2D6) were included in each assay ready plate. The assay ready plate was warmed to 37 °C in an incubator over 10 minutes. 5 µL pre-warmed NADPH regenerating system was added to each incubation well to start the reaction. Final incubation volume was 50 µL. The assay plate then was placed back in the 37 °C incubator. After 10-minute incubation, incubates were quenched by addition of 50 µL 100% acetonitrile containing internal standards (20 ng/mL D3-Dextrorphan). The supernatants were collected for RapidFire/MS/MS analysis.
RapidFire online solid phase extraction/sample injection system (Agilent) coupled with API4000 triple quadrupole mass spectrometer (AB Sciex) were used for sample analysis. The mobile phase composed of acetonitrile and water supplemented with 0.1% formic acid. A C4 solid phase extraction cartridge is used for sample separation. MS detection is achieved in positive ion MRM mode.
Peak areas for substrate, metabolite and internal standard are determined using the RapidFire integrator software (version 3.6.12009.12296). Peak area ratios (PAR) of metabolite and internal standard (stable-labelled metabolite) are then calculated. The measurement window for each experiment is then defined: • PAR (0% activity)= average PAR for all incubations containing concentrated inhibitor; • Par (100% activity)= average PAR for all incubations containing no inhibitor (DMSO controls); • % Activity (test inhibitor) • =[PAR(test inhibitor)-PAR(0% activity)]/[PAR(100% activity)-PAR(0% activity)]; • % Inhibition (test inhibitor)=100-% Activity (test inhibitor).

Row | SMILES | IC50 (hTLR9) [µM] | inhibition at 10 min, 10 µM (CYP2D6) [%]
1 | C[C@@H]1CN(c2ccc(C#N)c3ncccc23)C[C@H](CN2CCN(c3ccc4c(c3)CNC4)CC2)O1 [Example 7, 5-[(2S,6R)-2-[(4-isoindolin-5-ylpiperazin-1-yl)methyl]-6-methyl-morpholin-4-yl] quinoline-8-carbonitrile] | 0.089 | 15
2 | C[C@@H]1CN(c2ccc(C#N)c3ncccc23)C[C@H](CN2CCN(c3cnc4c(n3)CNCC4)CC2)O1 [Example 40, 5-[(2R,6S)-2-methyl-6-[[4-(5,6,7,8-tetrahydropyrido[3,4-b]pyrazin-3-yl)piperazin-1-yl]methyl]morpholin-4-yl]quinoline-8-carbonitrile] | 0.123 | 8
3 | C[C@@H]1CN(c2ccc(C#N)c3nccnc23)C[C@H](CN2CCN(c3cc4c(cn3)C[C@H](C)NC4)CC2)O1 (single isomer, unassigned) [Example 81] | 0.096 | 3.5
4 | C[C@@H]1CN(c2ccc(C#N)c3ncccc23)C[C@H](CN2CCN(c3cc4c(cn3)C[C@H](C)NC4)CC2)O1 (single isomer, unassigned) [Example 76] | 0.097 | 6
5 | C[C@@H]1CN(c2ccc(C#N)c3nccnc23)C[C@H](CN2CCN(c3cnc4c(c3)CNC4)CC2)O1 [Example 25, 8-[(2S,6R)-2-[[4-(6,7-dihydro-5H-pyrrolo[3,4-b]pyridin-3-yl)piperazin-1-yl]methyl]-6-methyl-morpholin-4-yl] quinoxaline-5-carbonitrile] | 0.09 | -8
6 | C[C@@H]1Cc2cc(N3CCN(C[C@H]4CN(c5ccc(C#N)c6nccnc56)C[C@@H](C)O4)CC3)ncc2CN1 (single isomer, unassigned) [Example 83] | 0.124 | -8
7 | C[C@@H]1CN(c2ccc(C#N)c3ncccc23)C[C@H](CN2CCN(c3cnc4c(n3)CCNC4)CC2)O1 [Example 17, 5-[(2R,6S)-2-methyl-6-[[4-(5,6,7,8-tetrahydropyrido[3,4-b]pyrazin-2-yl)piperazin-1-yl]methyl]morpholin-4-yl]quinoline-8-carbonitrile] | 0.098 | 4.5
8 | C[C@@H]1CN(c2ccc(C#N)c3nccnc23)C[C@H](CN2CCN(c3ccc4c(n3)CN[C@H]4C)CC2)O1 (single isomer, unassigned) [Example 78] | 0.131 | 0.5

These reach a lower IC50 (hTLR9). Values come first.

Row | IC50 (hTLR9) [µM] | inhibition at 10 min, 10 µM (CYP2D6) [%] | SMILES
9 | 0.085 | 4 | C[C@@H]1CN(c2ccc(C#N)c3ncccc23)C[C@H](CN2CC3(C2)CN(c2ccc4c(c2)CCNC4)CCO3)O1 [Example 44, 5-[(2R,6S)-2-methyl-6-[[8-(1,2,3,4-tetrahydroisoquinolin-6-yl)-5-oxa-2,8-diazaspiro[3.5]nonan-2-yl]methyl]morpholin-4-yl]quinoline-8-carbonitrile]
10 | 0.072 | -21.5 | C[C@@H]1CN(c2ccc(C#N)c3ncccc23)C[C@H](CN2CC3(C2)CN(c2cnc4c(c2)CNCC4)CCO3)O1 [Example 47, 5-[(2R,6S)-2-methyl-6-[[8-(5,6,7,8-tetrahydro-1,6-naphthyridin-3-yl)-5-oxa-2,8-diazaspiro[3.5]nonan-2-yl]methyl]morpholin-4-yl]quinoline-8-carbonitrile]
11 | 0.06 | -2 | CC1NCc2ncc(N3CCN(C[C@H]4CN(c5ccc(C#N)c6ncccc56)C[C@@H](C)O4)CC3)cc21 (stereo partly drawn) [Example 41, 5-[(2R,6S)-2-methyl-6-[[4-(5-methyl-6,7-dihydro-5H-pyrrolo[3,4-b]pyridin-3-yl)piperazin-1-yl]methyl]morpholin-4-yl]quinoline-8-carbonitrile]
12 | 0.058 | -6 | C[C@@H]1CN(c2ccc(C#N)c3ncccc23)C[C@H](CN2CCN(c3ccc4c(n3)CCNC4)CC2)O1 [Example 14, 5-[(2R,6S)-2-methyl-6-[[4-(5,6,7,8-tetrahydro-1,6-naphthyridin-2-yl)piperazin-1-yl]methyl]morpholin-4-yl]quinoline-8-carbonitrile]
13 | 0.058 | -5 | C[C@@H]1CN(c2ccc(C#N)c3ncccc23)C[C@H](CN2CCN(c3cccc4c3CNC4)CC2)O1 [Example 2, 5-[(2S,6R)-2-[(4-isoindolin-4-ylpiperazin-1-yl)methyl]-6-methyl-morpholin-4-yl] quinoline-8-carbonitrile]
14 | 0.048 | 22 | C[C@@H]1CN(c2ccc(C#N)c3ncccc23)C[C@H](CN2CC3(C2)CN(c2ccc4c(n2)CCNC4)CCO3)O1 [Example 49, 5-[(2R,6S)-2-methyl-6-[[8-(5,6,7,8-tetrahydro-1,6-naphthyridin-2-yl)-5-oxa-2,8-diazaspiro[3.5]nonan-2-yl]methyl]morpholin-4-yl]quinoline-8-carbonitrile]
15 | 0.045 | 13.5 | C[C@@H]1CN(c2ccc(C#N)c3ncccc23)C[C@H](CN2CC3(CCN3c3ccc4c(n3)CCNC4)C2)O1 [Example 36, 5-[(2R,6S)-2-methyl-6-[[1-(5,6,7,8-tetrahydro-1,6-naphthyridin-2-yl)-1,6-diazaspiro[3.3]heptan-6-yl]methyl]morpholin-4-yl]quinoline-8-carbonitrile]
16 | 0.036 | -8 | C[C@@H]1CN(c2ccc(C#N)c3ncccc23)C[C@H](CN2CCC(Nc3ncc4c(n3)CCNC4)C2)O1 (stereo partly drawn) [Example 57, 5-[(2R,6S)-2-methyl-6-[[3-(5,6,7,8-tetrahydropyrido [4,3-d]pyrimidin-2-ylamino)pyrrolidin-1-yl]methyl]morpholin-4-yl] quinoline-8-carbonitrile]
